These are literature values, as cited in US7482336B2, “Aminocyclohexanes as dipeptidyl peptidase-IV inhibitors for the treatment or prevention of diabetes” (Merck & Co., Inc., priority 2004, dated 2009).

The conditions of data set [1]: rats; Transplantation 63: 1495-1500 (1997).
For data set [2] the following is noted: mouse, cyclophosphamide-induced neutropenia; WO 99/56753.
The next data set deals with T1, DPP-IV (Homo sapiens, UniProt P27487).
T1 construct: GRF is rapidly degraded in plasma to GRF[3-44]
T1 sequence (P27487 whole entry, species assumed): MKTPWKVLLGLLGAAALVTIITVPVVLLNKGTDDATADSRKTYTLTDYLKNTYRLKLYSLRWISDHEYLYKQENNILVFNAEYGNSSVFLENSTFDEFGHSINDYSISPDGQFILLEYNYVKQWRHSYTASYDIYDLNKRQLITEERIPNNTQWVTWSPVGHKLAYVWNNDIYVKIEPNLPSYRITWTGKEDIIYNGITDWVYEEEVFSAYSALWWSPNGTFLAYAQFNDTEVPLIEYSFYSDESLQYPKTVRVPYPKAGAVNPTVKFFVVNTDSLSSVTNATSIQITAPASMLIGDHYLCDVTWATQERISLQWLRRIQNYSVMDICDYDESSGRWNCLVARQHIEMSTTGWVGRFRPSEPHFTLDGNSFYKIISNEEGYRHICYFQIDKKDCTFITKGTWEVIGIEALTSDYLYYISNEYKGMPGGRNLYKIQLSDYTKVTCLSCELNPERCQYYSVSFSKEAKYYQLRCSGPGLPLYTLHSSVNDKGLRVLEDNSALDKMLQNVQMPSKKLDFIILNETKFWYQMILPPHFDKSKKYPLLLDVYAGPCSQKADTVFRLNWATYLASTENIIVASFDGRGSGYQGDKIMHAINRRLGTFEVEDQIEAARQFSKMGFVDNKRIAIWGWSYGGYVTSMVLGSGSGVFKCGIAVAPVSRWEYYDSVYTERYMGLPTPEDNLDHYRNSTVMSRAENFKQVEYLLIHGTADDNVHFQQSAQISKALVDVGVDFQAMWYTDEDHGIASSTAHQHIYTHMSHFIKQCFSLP

In the case of `CC(C)N1CCC(c2ccccc2)(c2ccccc2)CC1` [Prodipine, Pro-Pro-diphenyl-phosphonate], the cardiac allograft survival result in data set [1] is on record as “double cardiac allograft survival in rats from day 7 to day 14”. In the case of `CC(C)[C@H](N)C(=O)N1CCC[C@H]1B(O)O` [Val-Boro-Pro], the hematopoiesis result in data set [2] is given as “stimulated hematopoiesis”. For diprotin A, at DPP-IV, the “degradation of GRF in plasma to GRF[3-44]” value is recorded as “prevented”.
